25 molecules from US20230399312A1, “SUBSTITUTED PYRIMIDINES AND METHODS OF USE” (THERAVANCE BIOPHARMA R&D IP, LLC, priority 2020, published 2023) can be followed below.

Some results are limits rather than exact numbers.

Assay [1] concerns the target T1, recombinant human ALK5 (TGF-βR1) protein (Homo sapiens, UniProt P36897).
T1 construct: purchased Life Technologies PR9075A
T1 sequence (P36897 34-503): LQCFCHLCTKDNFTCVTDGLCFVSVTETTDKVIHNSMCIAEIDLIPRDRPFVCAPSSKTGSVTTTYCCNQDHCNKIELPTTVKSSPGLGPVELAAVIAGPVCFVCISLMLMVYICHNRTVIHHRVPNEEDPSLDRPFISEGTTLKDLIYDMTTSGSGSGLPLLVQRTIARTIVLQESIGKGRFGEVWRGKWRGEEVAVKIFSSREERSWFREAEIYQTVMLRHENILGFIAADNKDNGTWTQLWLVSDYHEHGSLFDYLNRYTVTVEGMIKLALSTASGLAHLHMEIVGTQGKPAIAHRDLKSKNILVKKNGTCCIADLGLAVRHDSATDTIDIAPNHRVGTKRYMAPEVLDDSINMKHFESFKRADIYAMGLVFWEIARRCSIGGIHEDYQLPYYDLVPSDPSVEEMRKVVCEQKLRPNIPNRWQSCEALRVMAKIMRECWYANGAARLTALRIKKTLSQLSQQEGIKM
As to the kind of experiment: Biochemical ALK5 (TGF-βR1) assay to measure pKi (LANCE Ultra ULight kinase assay). Particulars: apparent pKi, converted from pIC50 by Cheng-Prusoff. In short, it runs like this: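 Read-out was LANCE Ultra TR-FRET with a europium anti-phospho-Topo IIα Thr1342 antibody after EDTA quench. Kinase reaction ran 60 min at 37 °C with ATP added from a 125 μM 5× stock, after 60 min compound–enzyme equilibration at room temperature. Values are pKi from Cheng-Prusoff conversion of fitted pIC50.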
In general terms: In TR-FRET formats the signal depends on donor and acceptor labels being close together.

Assay [2] concerns TGF-β-stimulated SMAD3 phosphorylation in BEAS-2B cells. As to the kind of experiment: Cellular ALK5 potency assay, inhibition of TGF-β stimulated pSMAD3 formation in BEAS-2B cells. In kind it is cell-based. Particulars: Homo sapiens, pSMAD3, TGF-β 10 ng/mL, read-out: BEAS2B pIC50 (converted). In short, it runs like this:
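Read-out is AlphaLISA detection of phospho-SMAD3 in lysates of BEAS-2B human lung epithelial cells. Cells are exposed to compound for 1 hour, then to 10 ng/mL TGF-β (final) for 30 minutes. Values are pIC50 from concentration–response curves.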

As to `Cc1cccc(-c2nccc(Nc3ccnc(Nc4ccc(N5CCNCC5CC(=O)OCC5CNC5)cc4)n3)n2)n1` (centres unmarked) [Compound 402, azetidin-3-ylmethyl 2-[1-[4-[[4-[[2-(6-methyl-2-pyridyl)pyrimidin-4-yl]amino]pyrimidin-2-yl]amino]phenyl]piperazin-2-yl]acetate], the Ki in assay [1] is 0.398 to 3.16 nM. Besides, the IC50 in assay [2] is 200 to 1260 nM.

As for `Cc1cccc(-c2nccc(Nc3ccnc(Nc4ccc(N5CCN[C@@H](CO)C5)cc4)n3)n2)n1` [Compound 403, (R)-(4-(4-((4-((2-(6-methylpyridin-2-yl)pyrimidin-4-yl)amino)pyrimidin-2-yl)amino)phenyl)piperazin-2-yl)methanol], in assay [1], the Ki was 0.0398 to 0.316 nM. For the same molecule, the IC50 in assay [2] is 25.1 to 158 nM.

`Cc1cccc(-c2nccc(Nc3ccnc(Nc4nc(C(=O)N[C@@H]5CCNC5)cs4)n3)n2)n1` [Compound 404, 2-[[4-[[2-(6-methyl-2-pyridyl)pyrimidin-4-yl]amino]pyrimidin-2-yl]amino]-N-[(3R)-pyrrolidin-3-yl]thiazole-4-carboxamide]: the Ki in assay [1] was at most 0.0316 nM. Further, the IC50 in assay [2] is 25.1 to 158 nM.

Regarding `Cc1cccc(-c2nccc(Nc3ccnc(Nc4ccc(CN5CCC(O)CC5)cc4)n3)n2)n1` [Compound 405, 1-[[4-[[4-[[2-(6-methyl-2-pyridyl)pyrimidin-4-yl]amino]pyrimidin-2-yl]amino]phenyl]methyl] piperidin-4-ol], the Ki in assay [1] was at most 0.0316 nM. Further, the IC50 in assay [2] is 25.1 to 158 nM.

`Cc1cccc(-c2nccc(Nc3ccnc(Nc4ccc(C(=O)O)cc4)n3)n2)n1` [Compound 406, 4-[[4-[[2-(6-methyl-2-pyridyl)pyrimidin-4-yl]amino]pyrimidin-2-yl]amino]benzoic acid]: the Ki in assay [1] is 0.398 to 3.16 nM. For the same molecule, the IC50 in assay [2] is 200 to 1260 nM.

As to `Cc1cccc(-c2nccc(Nc3ccnc(Nc4ccc(S(=O)(=O)N5CCOCC5)cc4)n3)n2)n1` [Compound 407, N4-[2-(6-methyl-2-pyridyl)pyrimidin-4-yl]-N2-(4-morpholinosulfonylphenyl) pyrimidine-2,4-diamine], the Ki in assay [1] was 0.0398 to 0.316 nM. Besides, the IC50 in assay [2] is 25.1 to 158 nM.

In the case of `Fc1ccc(Cl)cc1-c1nccc(Nc2ccnc(Nc3ccc(NCCN4CCOCC4)cc3)n2)n1` [Compound 408, N4-[2-(5-chloro-2-fluoro-phenyl)pyrimidin-4-yl]-N2-[4-(2-morpholinoethylamino)phenyl] pyrimidine-2,4-diamine], in assay [1], the Ki was 0.398 to 3.16 nM. Moreover, the IC50 in assay [2] was 25.1 to 158 nM.

On to `Cc1cccc(-c2nccc(Nc3ccnc(Nc4ccc(CN5[C@@H](C)CNC[C@@H]5C)cc4)n3)n2)n1` [Compound 409, N2-[4-[[(2S,6S)-2,6-dimethylpiperazin-1-yl]methyl]phenyl]-N4-[2-(6-methyl-2-pyridyl)pyrimidin-4-yl]pyrimidine-2,4-diamine], for which the Ki in assay [1] is 0.0398 to 0.316 nM. Further, in assay [2], the IC50 was 25.1 to 158 nM.

In the case of `Cc1cccc(-c2nccc(Nc3ccnc(Nc4ccc(N5CCOCC5)cc4O)n3)n2)n1` [Compound 410, 2-[[4-[[2-(6-methyl-2-pyridyl)pyrimidin-4-yl]amino]pyrimidin-2-yl]amino]-5-morpholino-phenol], the Ki in assay [1] is 3.98 to 31.6 nM. The IC50 in assay [2] is 25.1 to 158 nM.

For the molecule `COC(=O)CC1CN(Cc2cccc(Nc3nccc(Nc4ccnc(-c5cccc(C)n5)n4)n3)c2)CCN1` (centres unmarked) [Compound 411, methyl 2-[4-[[3-[[4-[[2-(6-methyl-2-pyridyl)pyrimidin-4-yl]amino]pyrimidin-2-yl]amino]phenyl]methyl]piperazin-2-yl]acetate], the Ki in assay [1] was 0.0398 to 0.316 nM. Moreover, the IC50 in assay [2] was 25.1 to 158 nM.

Turning to `Fc1ccc(Cl)cc1-c1nccc(Nc2ccnc(Nc3ccc(N4CCC(N5CCCC5)CC4)cc3)n2)n1` [Compound 412, N4-[2-(5-chloro-2-fluoro-phenyl)pyrimidin-4-yl]-N2-[4-(4-pyrrolidin-1-yl-1-piperidyl)phenyl]pyrimidine-2,4-diamine], the Ki in assay [1] was 0.0398 to 0.316 nM. In addition, in assay [2], the IC50 is 25.1 to 158 nM.

Consider `Cc1cccc(-c2nccc(Nc3ccnc(Nc4ccc(NS(=O)(=O)C5CCNC5)cc4)n3)n2)n1` (centres unmarked) [Compound 413, N-[4-[[4-[[2-(6-methyl-2-pyridyl)pyrimidin-4-yl]amino]pyrimidin-2-yl]amino]phenyl]pyrrolidine-3-sulfonamide], for which, in assay [1], the Ki is 0.398 to 3.16 nM. In addition, in assay [2], the IC50 is 200 to 1260 nM.

In the case of `Cc1cccc(-c2nccc(Nc3ccnc(Nc4ccc(CN5CCC(C(=O)O[C@@H]6CCN(C)C6)CC5)cc4)n3)n2)n1` [Compound 414, (R)-1-methylpyrrolidin-3-yl 1-(4-((4-((2-(6-methylpyridin-2-yl)pyrimidin-4-yl)amino)pyrimidin-2-yl)amino)benzyl)piperidine-4-carboxylate], the Ki in assay [1] is 0.0398 to 0.316 nM. The IC50 in assay [2] is 25.1 to 158 nM.

Regarding `CN(C)C1CCN(c2ccc(Nc3nccc(Nc4ccnc(-c5cc(Cl)ccc5F)n4)n3)cc2)CC1` [Compound 415, N4-[2-(5-chloro-2-fluoro-phenyl)pyrimidin-4-yl]-N2-[4-[4-(dimethylamino)-1-piperidyl]phenyl]pyrimidine-2,4-diamine], in assay [1], the Ki was 0.0398 to 0.316 nM. Moreover, the IC50 in assay [2] is 25.1 to 158 nM.

In the case of `Cc1cccc(-c2nccc(Nc3ccnc(Nc4ccc(N(C)C(=O)C5CCNCC5)cc4)n3)n2)n1` [Compound 416, N-methyl-N-[4-[[4-[[2-(6-methyl-2-pyridyl)pyrimidin-4-yl]amino]pyrimidin-2-yl]amino]phenyl]piperidine-4-carboxamide], the Ki in assay [1] was 0.0398 to 0.316 nM. Also, the IC50 in assay [2] was 200 to 1260 nM.

For the molecule `Cc1cccc(-c2nccc(Nc3ccnc(Nc4ccc(CN5CCS(=O)(=O)CC5)cc4)n3)n2)n1` [Compound 417, N2-[4-[(1,1-dioxo-1,4-thiazinan-4-yl)methyl]phenyl]-N4-[2-(6-methyl-2-pyridyl)pyrimidin-4-yl]pyrimidine-2,4-diamine], the Ki in assay [1] is 0.0398 to 0.316 nM. Moreover, in assay [2], the IC50 was 25.1 to 158 nM.

With `Cc1cccc(-c2nccc(Nc3ccnc(Nc4ccc(N5CCNCC5)cc4)n3)n2)n1` [Compound 418, N4-(2-(6-methylpyridin-2-yl)pyrimidin-4-yl)-N2-(4-(piperazin-1-yl)phenyl)pyrimidine-2,4-diamine], the Ki in assay [1] was 0.0398 to 0.316 nM. The IC50 in assay [2] is 25.1 to 158 nM.

Turning to `Cc1cccc(-c2nccc(Nc3ccnc(Nc4cc(NC(=O)C5CCNCC5)c5c(c4)OCCO5)n3)n2)n1` [Compound 419, N-[7-[[4-[[2-(6-methyl-2-pyridyl)pyrimidin-4-yl]amino]pyrimidin-2-yl]amino]-2,3-dihydro-1,4-benzodioxin-5-yl]piperidine-4-carboxamide], the Ki in assay [1] was 0.0398 to 0.316 nM. In assay [2], the IC50 was 25.1 to 158 nM.

Regarding `Cc1cccc(-c2nccc(Nc3ccnc(Nc4cccc(S(=O)(=O)NCCN(C)C)c4)n3)n2)n1` [Compound 420, N-[2-(dimethylamino)ethyl]-3-[[4-[[2-(6-methyl-2-pyridyl)pyrimidin-4-yl]amino]pyrimidin-2-yl]amino]benzenesulfonamide], in assay [1], the Ki was 0.0398 to 0.316 nM. In addition, the IC50 in assay [2] was 25.1 to 158 nM.

Consider `Cc1cccc(-c2nccc(Nc3ccnc(Nc4ccc(C)c(N)c4)n3)n2)n1` [Compound 421, N2-(3-amino-4-methyl-phenyl)-N4-[2-(6-methyl-2-pyridyl)pyrimidin-4-yl]pyrimidine-2,4-diamine], for which the Ki in assay [1] was 0.0398 to 0.316 nM. The IC50 in assay [2] is at most 20 nM.

Take `Cc1cccc(-c2nccc(Nc3ccnc(Nc4ccc(N5CCN[C@@H](C(=O)O)C5)cc4)n3)n2)n1` [Compound 422, (2R)-4-[4-[[4-[[2-(6-methyl-2-pyridyl)pyrimidin-4-yl]amino]pyrimidin-2-yl]amino]phenyl]piperazine-2-carboxylic acid]: the Ki in assay [1] was 0.0398 to 0.316 nM. Moreover, the IC50 in assay [2] is 200 to 1260 nM.

On to `Cc1cccc(-c2nccc(Nc3ccnc(Nc4cccc(C(=O)O)c4)n3)n2)n1` [Compound 423, 3-[[4-[[2-(6-methyl-2-pyridyl)pyrimidin-4-yl]amino]pyrimidin-2-yl]amino]benzoic acid], for which, in assay [1], the Ki was 0.398 to 3.16 nM. The IC50 in assay [2] was 1580 to 10000 nM.

Turning to `Cc1cccc(-c2nccc(Nc3ccnc(Nc4cccc(CN5C6CCC5CNC6)c4)n3)n2)n1` [Compound 424, N2-[3-(3,8-diazabicyclo[3.2.1]octan-8-ylmethyl)phenyl]-N4-[2-(6-methyl-2-pyridyl)pyrimidin-4-yl]pyrimidine-2,4-diamine], the Ki in assay [1] was 0.0398 to 0.316 nM. In assay [2], the IC50 was 25.1 to 158 nM.

With `Cc1cccc(-c2nccc(Nc3ccnc(Nc4ccc(-c5cnn(C(C)C)c5)cc4)n3)n2)n1` [Compound 425, N2-[4-(1-isopropylpyrazol-4-yl)phenyl]-N4-[2-(6-methyl-2-pyridyl)pyrimidin-4-yl]pyrimidine-2,4-diamine], the Ki in assay [1] is 0.398 to 3.16 nM. Besides, in assay [2], the IC50 was 25.1 to 158 nM.

As for `Fc1ccc(-c2nccc(Nc3ccnc(Nc4ccc(N5CCOCC5)cc4)n3)n2)nc1C(F)F` [Compound 426, N4-(2-(6-(difluoromethyl)-5-fluoropyridin-2-yl)pyrimidin-4-yl)-N2-(4-morpholinophenyl)pyrimidine-2,4-diamine], the Ki in assay [1] was 3.98 to 31.6 nM. Besides, in assay [2], the IC50 was 25.1 to 158 nM.
